From ChEMBL document CHEMBL4706653, “Ultra-short lipopeptides against gram-positive bacteria while alleviating antimicrobial resistance” (Eur J Med Chem, 2021)
In brackets after ≈: the same amount, converted by molar mass. Residues, ends and D or L forms follow the SMILES beside them. *: point of attachment. Palmitoyl = CCCCCCCCCCCCCCCC(=O)*; Myristoyl = CCCCCCCCCCCCCC(=O)*; Lauroyl = CCCCCCCCCCCC(=O)*; Decanoyl = CCCCCCCCCC(=O)*; Octanoyl = CCCCCCCC(=O)*

What was measured:
[1] = test system: Staphylococcus epidermidis; experiment: Antimicrobial activity against Staphylococcus epidermidis ATCC 12228 after 18 hrs by broth microdilution method; assay type: functional
Staphylococcus aureus [2] = experiment: Antimicrobial activity against Staphylococcus aureus ATCC 25923 after 18 hrs by broth microdilution method; assay type: functional
Staphylococcus aureus [3] = experiment: Antimicrobial activity against Staphylococcus aureus ATCC 29213 after 18 hrs by broth microdilution method; assay type: functional
Bacillus subtilis = experiment: Antimicrobial activity against Bacillus subtilis ATCC 23857 after 18 hrs by broth microdilution method; assay type: functional
Staphylococcus aureus [4] = experiment: Antimicrobial activity against methicillin-resistant Staphylococcus aureus 75 after 18 hrs by broth microdilution method; assay type: functional
Staphylococcus aureus [5] = experiment: Antimicrobial activity against methicillin-resistant Staphylococcus aureus 113 after 18 hrs by broth microdilution method; assay type: functional
Erythrocyte = experiment: Hemolytic activity against mouse erythrocytes measured after 1 hr; assay type: ADME, cell-based
[6] = Therapeutic index, ratio of MHC for mouse RBC to geometric mean of peptide MIC for Staphylococcus epidermidis ATCC 12228; assay type: toxicity; conditions: pooled result: one value given for 6 cell lines, strains, targets or settings, read-out: TI

| SMILES | MIC [1] [µM] | MIC (Staphylococcus aureus [2]) [µM] | MIC (Staphylococcus aureus [3]) [µM] | MIC (Bacillus subtilis) [µM] | MIC (Staphylococcus aureus [4]) [µM] | MIC (Staphylococcus aureus [5]) [µM] | MHC10 (Erythrocyte) [µM] | selectivity ratio [6] |
| --- | --- | --- | --- | --- | --- | --- | --- | --- |
| CCCCCCCCCC(=O)N[C@@H](CCCNC(=N)N)C(=O)N[C@@H](CCCNC(=N)N)C(=O)N[C@@H](CCCNC(=N)N)C(N)=O (Decanoyl-Arg-Arg-Arg-NH2) | 64 (≈ 41 µg/mL) | 128 (≈ 81.9 µg/mL) | 128 (≈ 81.9 µg/mL) | 32 (≈ 20.5 µg/mL) | 128 (≈ 81.9 µg/mL) | 128 (≈ 81.9 µg/mL) | > 256 | 5.05 |
| CCCCCCCCCC(=O)N[C@@H](CCCNC(=N)N)C(=O)N[C@@H](CCCNC(=N)N)C(=O)N[C@@H](Cc1c[nH]c2ccccc12)C(N)=O (Decanoyl-Arg-Arg-Trp-NH2) | 16 (≈ 10.7 µg/mL) | 32 (≈ 21.4 µg/mL) | 16 (≈ 10.7 µg/mL) | 8 (≈ 5.36 µg/mL) | 16 (≈ 10.7 µg/mL) | 8 (≈ 5.36 µg/mL) | > 256 | 32 |
| CCCCCCCCCC(=O)N[C@@H](CCCNC(=N)N)C(=O)N[C@@H](Cc1c[nH]c2ccccc12)C(=O)N[C@@H](CCCNC(=N)N)C(N)=O (Decanoyl-Arg-Trp-Arg-NH2) | 16 (≈ 10.7 µg/mL) | 16 (≈ 10.7 µg/mL) | 32 (≈ 21.4 µg/mL) | 16 (≈ 10.7 µg/mL) | 16 (≈ 10.7 µg/mL) | 16 (≈ 10.7 µg/mL) | > 256 | 3.43 |
| CCCCCCCCCC(=O)N[C@@H](CCCNC(=N)N)C(=O)N[C@@H](Cc1c[nH]c2ccccc12)C(=O)N[C@@H](Cc1c[nH]c2ccccc12)C(N)=O (Decanoyl-Arg-Trp-Trp-NH2) | 32 (≈ 22.4 µg/mL) | 32 (≈ 22.4 µg/mL) | 16 (≈ 11.2 µg/mL) | 16 (≈ 11.2 µg/mL) | 8 (≈ 5.6 µg/mL) | 8 (≈ 5.6 µg/mL) | > 256 | 27.4 |
| CCCCCCCCCC(=O)N[C@@H](Cc1c[nH]c2ccccc12)C(=O)N[C@@H](CCCNC(=N)N)C(=O)N[C@@H](CCCNC(=N)N)C(N)=O (Decanoyl-Trp-Arg-Arg-NH2) | 8 (≈ 5.36 µg/mL) | 8 (≈ 5.36 µg/mL) | 16 (≈ 10.7 µg/mL) | 8 (≈ 5.36 µg/mL) | 16 (≈ 10.7 µg/mL) | 16 (≈ 10.7 µg/mL) | 256 | 21.3 |
| CCCCCCCCCCCC(=O)N[C@@H](CCCNC(=N)N)C(=O)N[C@@H](CCCNC(=N)N)C(=O)N[C@@H](CCCNC(=N)N)C(N)=O (Lauroyl-Arg-Arg-Arg-NH2) | 16 (≈ 10.7 µg/mL) | 32 (≈ 21.4 µg/mL) | 16 (≈ 10.7 µg/mL) | 8 (≈ 5.34 µg/mL) | 32 (≈ 21.4 µg/mL) | 16 (≈ 10.7 µg/mL) | > 256 | 25.6 |
| CCCCCCCCCCCC(=O)N[C@@H](CCCNC(=N)N)C(=O)N[C@@H](Cc1c[nH]c2ccccc12)C(=O)N[C@@H](CCCNC(=N)N)C(N)=O (Lauroyl-Arg-Trp-Arg-NH2) | 8 (≈ 5.58 µg/mL) | 16 (≈ 11.2 µg/mL) | 8 (≈ 5.58 µg/mL) | 8 (≈ 5.58 µg/mL) | 4 (≈ 2.79 µg/mL) | 4 (≈ 2.79 µg/mL) | 64 | 8 |
| CCCCCCCCCCCC(=O)N[C@@H](CCCNC(=N)N)C(=O)N[C@@H](Cc1c[nH]c2ccccc12)C(=O)N[C@@H](Cc1c[nH]c2ccccc12)C(N)=O (Lauroyl-Arg-Trp-Trp-NH2) | 64 (≈ 46.6 µg/mL) | 32 (≈ 23.3 µg/mL) | 64 (≈ 46.6 µg/mL) | 64 (≈ 46.6 µg/mL) | 8 (≈ 5.82 µg/mL) | 8 (≈ 5.82 µg/mL) | > 256 | 12.8 |
| CCCCCCCCCCCC(=O)N[C@@H](Cc1c[nH]c2ccccc12)C(=O)N[C@@H](CCCNC(=N)N)C(=O)N[C@@H](CCCNC(=N)N)C(N)=O (Lauroyl-Trp-Arg-Arg-NH2) | 8 (≈ 5.58 µg/mL) | 8 (≈ 5.58 µg/mL) | 8 (≈ 5.58 µg/mL) | 8 (≈ 5.58 µg/mL) | 8 (≈ 5.58 µg/mL) | 4 (≈ 2.79 µg/mL) | 64 | 8.73 |
| CCCCCCCCCCCCCC(=O)N[C@@H](CCCNC(=N)N)C(=O)N[C@@H](CCCNC(=N)N)C(=O)N[C@@H](CCCNC(=N)N)C(N)=O (Myristoyl-Arg-Arg-Arg-NH2) | 8 (≈ 5.57 µg/mL) | 16 (≈ 11.1 µg/mL) | 64 (≈ 44.5 µg/mL) | 8 (≈ 5.57 µg/mL) | 8 (≈ 5.57 µg/mL) | 8 (≈ 5.57 µg/mL) | 128 | 6.86 |
| CCCCCCCCCCCCCC(=O)N[C@@H](CCCNC(=N)N)C(=O)N[C@@H](CCCNC(=N)N)C(=O)N[C@@H](Cc1c[nH]c2ccccc12)C(N)=O (Myristoyl-Arg-Arg-Trp-NH2) | 8 (≈ 5.81 µg/mL) | 8 (≈ 5.81 µg/mL) | 4 (≈ 2.9 µg/mL) | 8 (≈ 5.81 µg/mL) | 2 (≈ 1.45 µg/mL) | 2 (≈ 1.45 µg/mL) | 32 | 6 |
| CCCCCCCCCCCCCC(=O)N[C@@H](CCCNC(=N)N)C(=O)N[C@@H](Cc1c[nH]c2ccccc12)C(=O)N[C@@H](CCCNC(=N)N)C(N)=O (Myristoyl-Arg-Trp-Arg-NH2) | 4 (≈ 2.9 µg/mL) | 8 (≈ 5.81 µg/mL) | 8 (≈ 5.81 µg/mL) | 8 (≈ 5.81 µg/mL) | 4 (≈ 2.9 µg/mL) | 4 (≈ 2.9 µg/mL) | 64 | 10.7 |
| CCCCCCCCCCCCCC(=O)N[C@@H](Cc1c[nH]c2ccccc12)C(=O)N[C@@H](CCCNC(=N)N)C(=O)N[C@@H](CCCNC(=N)N)C(N)=O (Myristoyl-Trp-Arg-Arg-NH2) | 4 (≈ 2.9 µg/mL) | 8 (≈ 5.81 µg/mL) | 8 (≈ 5.81 µg/mL) | 4 (≈ 2.9 µg/mL) | 2 (≈ 1.45 µg/mL) | 2 (≈ 1.45 µg/mL) | 64 | 13.7 |
| CCCCCCCC(=O)N[C@@H](CCCNC(=N)N)C(=O)N[C@@H](CCCNC(=N)N)C(=O)N[C@@H](CCCNC(=N)N)C(N)=O (Octanoyl-Arg-Arg-Arg-NH2) | > 128 | > 128 | > 128 | > 128 | > 128 | > 128 | > 256 | – |
| CCCCCCCC(=O)N[C@@H](CCCNC(=N)N)C(=O)N[C@@H](CCCNC(=N)N)C(=O)N[C@@H](Cc1c[nH]c2ccccc12)C(N)=O (Octanoyl-Arg-Arg-Trp-NH2) | 64 (≈ 41.1 µg/mL) | 64 (≈ 41.1 µg/mL) | 64 (≈ 41.1 µg/mL) | 32 (≈ 20.5 µg/mL) | 64 (≈ 41.1 µg/mL) | 128 (≈ 82.2 µg/mL) | > 256 | 7.38 |
| CCCCCCCC(=O)N[C@@H](CCCNC(=N)N)C(=O)N[C@@H](Cc1c[nH]c2ccccc12)C(=O)N[C@@H](CCCNC(=N)N)C(N)=O (Octanoyl-Arg-Trp-Arg-NH2) | 128 (≈ 82.2 µg/mL) | > 128 | 128 (≈ 82.2 µg/mL) | 64 (≈ 41.1 µg/mL) | 128 (≈ 82.2 µg/mL) | 128 (≈ 82.2 µg/mL) | > 256 | 3.69 |
| CCCCCCCC(=O)N[C@@H](CCCNC(=N)N)C(=O)N[C@@H](Cc1c[nH]c2ccccc12)C(=O)N[C@@H](Cc1c[nH]c2ccccc12)C(N)=O (Octanoyl-Arg-Trp-Trp-NH2) | 16 (≈ 10.7 µg/mL) | 16 (≈ 10.7 µg/mL) | 16 (≈ 10.7 µg/mL) | 16 (≈ 10.7 µg/mL) | 8 (≈ 5.37 µg/mL) | 32 (≈ 21.5 µg/mL) | > 256 | 29.5 |
| CCCCCCCC(=O)N[C@@H](Cc1c[nH]c2ccccc12)C(=O)N[C@@H](CCCNC(=N)N)C(=O)N[C@@H](CCCNC(=N)N)C(N)=O (Octanoyl-Trp-Arg-Arg-NH2) | 32 (≈ 20.5 µg/mL) | 128 (≈ 82.2 µg/mL) | 128 (≈ 82.2 µg/mL) | 64 (≈ 41.1 µg/mL) | 64 (≈ 41.1 µg/mL) | 128 (≈ 82.2 µg/mL) | > 256 | 5.65 |
| CCCCCCCCCCCCCCCC(=O)N[C@@H](CCCNC(=N)N)C(=O)N[C@@H](CCCNC(=N)N)C(=O)N[C@@H](CCCNC(=N)N)C(N)=O (Palmitoyl-Arg-Arg-Arg-NH2) | 8 (≈ 5.79 µg/mL) | 8 (≈ 5.79 µg/mL) | 32 (≈ 23.2 µg/mL) | 8 (≈ 5.79 µg/mL) | 8 (≈ 5.79 µg/mL) | 2 (≈ 1.45 µg/mL) | 64 | 5.83 |
| CCCCCCCCCCCCCCCC(=O)N[C@@H](CCCNC(=N)N)C(=O)N[C@@H](CCCNC(=N)N)C(=O)N[C@@H](Cc1c[nH]c2ccccc12)C(N)=O (Palmitoyl-Arg-Arg-Trp-NH2) | 8 (≈ 6.03 µg/mL) | 8 (≈ 6.03 µg/mL) | 8 (≈ 6.03 µg/mL) | 4 (≈ 3.02 µg/mL) | 8 (≈ 6.03 µg/mL) | 2 (≈ 1.51 µg/mL) | 32 | 5.05 |
| CCCCCCCCCCCCCCCC(=O)N[C@@H](CCCNC(=N)N)C(=O)N[C@@H](Cc1c[nH]c2ccccc12)C(=O)N[C@@H](CCCNC(=N)N)C(N)=O (Palmitoyl-Arg-Trp-Arg-NH2) | 8 (≈ 6.03 µg/mL) | 8 (≈ 6.03 µg/mL) | 16 (≈ 12.1 µg/mL) | 8 (≈ 6.03 µg/mL) | 8 (≈ 6.03 µg/mL) | 4 (≈ 3.02 µg/mL) | 64 | 7.38 |
| CCCCCCCCCCCCCCCC(=O)N[C@@H](CCCNC(=N)N)C(=O)N[C@@H](Cc1c[nH]c2ccccc12)C(=O)N[C@@H](Cc1c[nH]c2ccccc12)C(N)=O (Palmitoyl-Arg-Trp-Trp-NH2) | 16 (≈ 12.5 µg/mL) | 16 (≈ 12.5 µg/mL) | 32 (≈ 25.1 µg/mL) | 64 (≈ 50.2 µg/mL) | 32 (≈ 25.1 µg/mL) | 8 (≈ 6.27 µg/mL) | > 256 | 18.3 |
| CCCCCCCCCCCCCCCC(=O)N[C@@H](Cc1c[nH]c2ccccc12)C(=O)N[C@@H](CCCNC(=N)N)C(=O)N[C@@H](CCCNC(=N)N)C(N)=O (Palmitoyl-Trp-Arg-Arg-NH2) | 8 (≈ 6.03 µg/mL) | 8 (≈ 6.03 µg/mL) | 8 (≈ 6.03 µg/mL) | 8 (≈ 6.03 µg/mL) | 8 (≈ 6.03 µg/mL) | 8 (≈ 6.03 µg/mL) | 32 | 4 |
| CN[C@H](CC(C)C)C(=O)N[C@H]1C(=O)N[C@@H](CC(N)=O)C(=O)N[C@H]2C(=O)N[C@H]3C(=O)N[C@H](C(=O)N[C@H](C(=O)O)c4cc(O)cc(O)c4-c4cc3ccc4O)[C@H](O)c3ccc(c(Cl)c3)Oc3cc2cc(c3O[C@@H]2O[C@H](CO)[C@@H](O)[C@H](O)[C@H]2O[C@H]2C[C@](C)(N)[C@H](O)[C@H](C)O2)Oc2ccc(cc2Cl)[C@H]1O [VANCOMYCIN] | < 1 | < 1 | < 1 | < 1 | < 1 | < 1 | – | – |
